Results: article PMC3827942, “A novel type of N-acetylglutamate synthase is involved in the first step of arginine biosynthesis in Corynebacterium glutamicum” (BMC Genomics, 2013)

Experiments:
ArgA from E. coli = molecular target: T1, ArgA from E. coli (Escherichia coli, UniProt P0A6C5); assay: DTNB assay of CoA release at […] nm, crude extract; type: biochemical; details: 500 mM L-glutamate, 0.2 mM acetyl-CoA, 0.2 mM DTNB, 100 mM Tris-HCl pH 7.5, 25 C; wild-type C. glutamicum background with own NAGS activity
T1 construct: structural gene overexpressed from pZ8-1 in wild-type C. glutamicum ATCC 13032; crude extract
T1 sequence (P0A6C5 1-443): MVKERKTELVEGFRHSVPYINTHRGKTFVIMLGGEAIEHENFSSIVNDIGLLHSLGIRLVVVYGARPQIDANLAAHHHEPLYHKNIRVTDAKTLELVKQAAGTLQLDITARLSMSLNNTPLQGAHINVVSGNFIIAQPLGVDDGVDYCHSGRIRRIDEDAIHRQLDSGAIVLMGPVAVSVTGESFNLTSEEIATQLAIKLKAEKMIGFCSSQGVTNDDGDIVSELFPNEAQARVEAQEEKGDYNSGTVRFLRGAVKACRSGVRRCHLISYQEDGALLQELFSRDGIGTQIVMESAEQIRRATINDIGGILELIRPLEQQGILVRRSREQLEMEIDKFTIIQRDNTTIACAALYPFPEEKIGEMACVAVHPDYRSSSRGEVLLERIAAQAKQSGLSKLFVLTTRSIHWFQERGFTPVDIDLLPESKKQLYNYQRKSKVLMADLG

Cg3035 = molecular target: T2, Cg3035 (Corynebacterium glutamicum, UniProt Q8NM40); assay: DTNB assay of CoA release at […] nm, crude extract; type: biochemical; details: 500 mM L-glutamate, 0.2 mM acetyl-CoA, 0.2 mM DTNB, 100 mM Tris-HCl pH 7.5, 25 C; overexpressing strain against deletion mutant; no acetyl-CoA consumption without glutamate
T2 construct: gene Cgl2740; complete ORF, untagged as far as told, overexpressed from pZ8-1 in C. glutamicum ATCC 13032 and its cg3035 deletion mutant; crude extract
T2 sequence (Q8NM40 entry or part of it): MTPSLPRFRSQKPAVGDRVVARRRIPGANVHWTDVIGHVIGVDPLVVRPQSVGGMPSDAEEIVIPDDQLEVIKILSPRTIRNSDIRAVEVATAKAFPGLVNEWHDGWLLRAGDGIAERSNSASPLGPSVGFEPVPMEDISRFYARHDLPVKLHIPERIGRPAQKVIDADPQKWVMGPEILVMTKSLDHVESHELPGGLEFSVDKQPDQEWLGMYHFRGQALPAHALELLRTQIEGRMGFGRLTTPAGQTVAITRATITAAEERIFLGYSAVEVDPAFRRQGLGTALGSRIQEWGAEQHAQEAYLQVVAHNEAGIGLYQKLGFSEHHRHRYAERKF

## CC(=O)SCCNC(=O)CCNC(=O)[C@H](O)C(C)(C)COP(=O)(O)OP(=O)(O)OC[C@H]1O[C@@H](n2cnc3c(N)ncnc32)[C@H](O)[C@@H]1OP(=O)(O)O [acetyl-CoA]
ArgA from E. coli
  DTNB assay of CoA release at 412 nm, crude extract: ArgA from E. coli was found to confer additional NAGS activity
Cg3035
  DTNB assay of CoA release at 412 nm, crude extract: the function of Cg3035 to use acetyl-CoA for acetylation of glutamate was demonstrated
